Source: patent US10744092B2, “Temperature-sensitive composite and method for preparing same” (KOREA UNIVERSITY RESEARCH AND BUSINESS FOUNDATION, SEJONG …, priority 2016, dated 2020)

Legend:
[1] = Release pattern of drug from composite (dialysis bag in PBS pH 7.4, HPLC); assay type: physicochemical; conditions: at body temperature (37° C.) versus room temperature; PBS pH 7.4, dialysis bag
Experimental: To confirm the release pattern of a drug from the temperature-sensitive composite in the present invention, an experiment was carried out as follows. 20 mg of each of the temperature-sensitive composites from Examples 1, 2 and 3, and the temperature-sensitive polymer composites from Comparative Examples 1, 2 and 3 was put into a dialysis bag (filtration molecular weight cut-off—100,000), and then immersed in 20 ml of a phosphate buffer solution (PBS, pH 7.4). The temperature was maintained at 25° C. and 37.5° C. with stirring at 600 rpm. At predetermined time, 5 ml of the phosphate buffer solution was withdrawn to measure an amount of the released drug through HPLC. After sampling, the remaining phosphate buffer solution was completely removed, and a fresh phosphate buffer solution was added.

[2] = Precipitation / stability and solubility of drug in composite aqueous solution; assay type: physicochemical; conditions: drug not loaded in nanoparticles
Experimental: An aqueous solution was prepared by mixing 2 g of Pluronic F-127, 0.1 g of naproxen and 50 mg of sodium hyaluronate with 10 ml of distilled water, thereby preparing a polymer composite aqueous solution in which naproxen was dispersed.
An aqueous solution was prepared by mixing 1.6 g of Pluronic F-127, 0.4 g of Pluronic F-68, 50 mg of doxorubicin and 75 mg of docetaxel with 10 ml of distilled water, thereby preparing a polymer composite aqueous solution in which doxorubicin and docetaxel were dispersed.

| release of the drug [1] | precipitation in the polymer composite [2] | Compound |
| --- | --- | --- |
| decreased | – | CCCCN1CCCCC1C(=O)Nc1c(C)cccc1C (stereo not shown) [bupivacaine] |
| – | precipitated | COc1ccc2cc([C@H](C)C(=O)O)ccc2c1 [naproxen] |
| – | precipitated | CC(=O)O[C@@]12CO[C@@H]1C[C@H](O)[C@@]1(C)C(=O)[C@H](O)C3=C(C)[C@@H](OC(=O)[C@H](O)[C@@H](NC(=O)OC(C)(C)C)c4ccccc4)C[C@@](O)([C@@H](OC(=O)c4ccccc4)[C@H]21)C3(C)C [docetaxel] |
| decreased | – | COc1cccc2c1C(=O)c1c(O)c3c(c(O)c1C2=O)C[C@@](O)(C(=O)CO)C[C@@H]3O[C@H]1C[C@H](N)[C@H](O)[C@H](C)O1 [doxorubicin] |
